Test results from patent US20230055237A1, “COMPOUNDS AND METHODS FOR THE TREATMENT OF CYSTIC FIBROSIS” (Flatley Discovery Lab, LLC, priority 2019, published 2023).

Biological target: T1, CFTR (Homo sapiens, UniProt P13569, DEL508-508)
T1 construct: Primary CF airway epithelial cells were obtained from the UNC Cystic Fibrosis Tissue Procurement and Cell Culture Core; host or cells: primary CF airway epithelial cells, differentiated at the air-liquid interface
Assay: Equivalent current assay in primary CF airway epithelial cells (NAUC, combination with 1st site corrector FDL169 or VX-809)
Assay type: cell-based
Conditions: 37° C., 24 h

[1] = test compound 1 μM in combination with 1st site corrector FDL169 (3 μM)
[2] = test compound 1 μM in combination with 1st site corrector VX-809 (3 μM)
[3] = test compound 3 μM in combination with 1st site corrector FDL169 (3 μM)
[4] = test compound 3 μM in combination with 1st site corrector VX-809 (3 μM)
[5] = test compound 10 μM in combination with 1st site corrector FDL169 (3 μM)
[6] = test compound 10 μM in combination with 1st site corrector VX-809 (3 μM)

T1 sequence (P13569 with tags, fused parts or gaps DEL508-508): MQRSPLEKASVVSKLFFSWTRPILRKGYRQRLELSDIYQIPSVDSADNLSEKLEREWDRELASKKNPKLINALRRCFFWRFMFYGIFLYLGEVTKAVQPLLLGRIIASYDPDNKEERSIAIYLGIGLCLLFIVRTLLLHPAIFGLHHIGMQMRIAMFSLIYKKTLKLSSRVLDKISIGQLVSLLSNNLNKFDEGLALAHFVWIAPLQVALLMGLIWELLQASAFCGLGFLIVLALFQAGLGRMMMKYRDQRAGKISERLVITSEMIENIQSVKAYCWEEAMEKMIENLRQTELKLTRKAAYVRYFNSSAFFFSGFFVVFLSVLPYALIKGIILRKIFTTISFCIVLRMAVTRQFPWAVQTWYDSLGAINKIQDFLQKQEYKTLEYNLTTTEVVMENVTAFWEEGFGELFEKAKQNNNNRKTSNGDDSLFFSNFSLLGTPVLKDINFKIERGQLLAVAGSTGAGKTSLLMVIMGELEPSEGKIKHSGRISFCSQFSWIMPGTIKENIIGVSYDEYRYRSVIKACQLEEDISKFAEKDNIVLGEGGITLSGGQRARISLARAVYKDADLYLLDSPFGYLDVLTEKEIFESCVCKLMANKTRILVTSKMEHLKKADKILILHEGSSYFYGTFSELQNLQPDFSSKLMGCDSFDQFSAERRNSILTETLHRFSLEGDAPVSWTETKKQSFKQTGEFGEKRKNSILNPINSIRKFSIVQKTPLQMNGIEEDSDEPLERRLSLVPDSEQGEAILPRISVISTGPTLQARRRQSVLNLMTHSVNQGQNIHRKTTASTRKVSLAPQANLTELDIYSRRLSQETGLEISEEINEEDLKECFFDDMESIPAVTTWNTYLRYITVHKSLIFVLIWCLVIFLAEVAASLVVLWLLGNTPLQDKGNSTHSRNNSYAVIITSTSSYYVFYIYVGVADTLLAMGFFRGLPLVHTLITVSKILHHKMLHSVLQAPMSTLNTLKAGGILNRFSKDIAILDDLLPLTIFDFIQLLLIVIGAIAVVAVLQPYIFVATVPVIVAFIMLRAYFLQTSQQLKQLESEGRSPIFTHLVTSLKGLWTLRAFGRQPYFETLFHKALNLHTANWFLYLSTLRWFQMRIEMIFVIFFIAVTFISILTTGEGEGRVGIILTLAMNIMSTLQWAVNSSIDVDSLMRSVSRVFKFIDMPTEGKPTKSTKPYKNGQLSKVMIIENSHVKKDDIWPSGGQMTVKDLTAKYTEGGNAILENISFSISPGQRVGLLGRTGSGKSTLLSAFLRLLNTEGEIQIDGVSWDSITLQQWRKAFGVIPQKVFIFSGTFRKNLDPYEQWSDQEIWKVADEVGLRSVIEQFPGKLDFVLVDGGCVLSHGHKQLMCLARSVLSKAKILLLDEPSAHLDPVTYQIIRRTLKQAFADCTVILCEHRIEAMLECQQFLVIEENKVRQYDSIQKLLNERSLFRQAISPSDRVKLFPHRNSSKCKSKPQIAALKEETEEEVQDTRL

| Compound | Nauc @ 1 μM [1] | Nauc @ 1 μM [2] | Nauc @ 3 μM [3] | Nauc @ 3 μM [4] | Nauc @ 10 μM [5] | Nauc @ 10 μM [6] |
| --- | --- | --- | --- | --- | --- | --- |
| CN(C(=O)[C@H]1[C@@H](C(F)(F)F)NC2(C(=O)Nc3c(Cl)cc(Cl)cc32)[C@H]1C(=O)O)c1cc(Cl)cc(Cl)c1 (single isomer, unassigned) [Example 269b] | ++ (NAUC “++” refers to an observed NAUC 170-140% of positive control) | +++ (NAUC “+++” refers to an observed NAUC>170% of positive control) | +++ (NAUC “+++” refers to an observed NAUC>170% of positive control) | +++ (NAUC “+++” refers to an observed NAUC>170% of positive control) | +++ (NAUC “+++” refers to an observed NAUC>170% of positive control) | +++ (NAUC “+++” refers to an observed NAUC>170% of positive control) |
| CC(C)(C)C(C)(C)CN(C(=O)[C@H]1[C@H]2C[C@](C)(O)CN2[C@]2(C(=O)Nc3c(Cl)cc(Cl)cc32)[C@H]1C(=O)O)c1cc(Cl)cc(Cl)c1 [Example 96] | +++ (NAUC “+++” refers to an observed NAUC>170% of positive control) | – | +++ (NAUC “+++” refers to an observed NAUC>170% of positive control) | – | + (NAUC “+” refers to an observed NAUC <140% of positive control) | – |
| O=C(Nc1cc(Cl)cc(Cl)c1)C1C(C(F)(F)c2ccc(Cl)cc2)NC2(C(=O)Nc3c(Cl)cc(Cl)cc32)C1C(=O)O (stereo not drawn) [Example 67.9b, 5,7-dichloro-5,7′-((4-chlorophenyl)difluoromethyl)-4′-((3,5-dichlorophenyl)carbamoyl)-2-oxospiro[indoline-3,2′-pyrrolidine]-3′-carboxylic acid] | – | + (NAUC “+” refers to an observed NAUC <140% of positive control) | – | ++ (NAUC “++” refers to an observed NAUC 170-140% of positive control) | – | +++ (NAUC “+++” refers to an observed NAUC>170% of positive control) |
| CN(C(=O)[C@H]1[C@@H](C(=O)O)[C@]2(C(=O)Nc3c(Cl)cc(Cl)cc32)N2CC(F)(F)C[C@@H]12)c1cc(Cl)cc(Cl)c1F (single isomer, unassigned) [Example 265a] | – | + (NAUC “+” refers to an observed NAUC <140% of positive control) | – | +++ (NAUC “+++” refers to an observed NAUC>170% of positive control) | – | +++ (NAUC “+++” refers to an observed NAUC>170% of positive control) |
| O=C(O)[C@H]1[C@@H](C(=O)N(CC2CC2)c2ccccc2-c2ccccc2)[C@H]2CC(F)(F)CN2[C@]12C(=O)Nc1c(Cl)cc(Cl)cc12 [Example 180] | +++ (NAUC “+++” refers to an observed NAUC>170% of positive control) | – | +++ (NAUC “+++” refers to an observed NAUC>170% of positive control) | – | + (NAUC “+” refers to an observed NAUC <140% of positive control) | – |
| O=C(O)[C@H]1[C@@H](C(=O)N(CCO)c2cc(Cl)cc(Cl)c2)[C@H]2CC(F)(F)CN2[C@]12C(=O)Nc1c(Cl)cc(Cl)cc12 [Example 150] | + (NAUC “+” refers to an observed NAUC <140% of positive control) | – | +++ (NAUC “+++” refers to an observed NAUC>170% of positive control) | – | – | – |
| O=C(Nc1cnc(-c2ccccc2)cn1)[C@H]1[C@H]2CC(F)(F)CN2[C@]2(C(=O)Nc3c(Cl)cc(Cl)cc32)[C@H]1C(=O)O [Example 134] | – | + (NAUC “+” refers to an observed NAUC <140% of positive control) | – | + (NAUC “+” refers to an observed NAUC <140% of positive control) | – | – |
| O=C(Nc1cccc2cccnc12)[C@H]1[C@H]2CC(F)(F)CN2[C@]2(C(=O)Nc3c(Cl)cc(Cl)cc32)[C@H]1C(=O)O [Example 127] | – | + (NAUC “+” refers to an observed NAUC <140% of positive control) | – | + (NAUC “+” refers to an observed NAUC <140% of positive control) | – | – |
| O=C(Nc1cccc2nccnc12)[C@H]1[C@H]2CC(F)(F)CN2[C@]2(C(=O)Nc3c(Cl)cc(Cl)cc32)[C@H]1C(=O)O [Example 126] | – | ++ (NAUC “++” refers to an observed NAUC 170-140% of positive control) | – | ++ (NAUC “++” refers to an observed NAUC 170-140% of positive control) | – | – |
| COCCN(C(=O)[C@H]1[C@H]2CC(F)(F)CN2[C@]2(C(=O)Nc3c(Cl)cc(Cl)cc32)[C@H]1C(=O)O)c1cc(Cl)cc(Cl)c1 [Example 132] | – | +++ (NAUC “+++” refers to an observed NAUC>170% of positive control) | – | +++ (NAUC “+++” refers to an observed NAUC>170% of positive control) | – | +++ (NAUC “+++” refers to an observed NAUC>170% of positive control) |
| CN1C(C(F)(F)F)C(C(=O)Nc2cc(Cl)cc(Cl)c2)C(C(=O)O)C12C(=O)Nc1c(Cl)cc(Cl)cc12 (stereo not drawn) [Example 43] | – | – | – | +++ (NAUC “+++” refers to an observed NAUC>170% of positive control) | – | ++ (NAUC “++” refers to an observed NAUC 170-140% of positive control) |
| O=C(Nc1cc(Cl)cc(Cl)c1)C1C(C(F)(F)c2ccc(C(F)(F)F)cc2)NC2(C(=O)Nc3c(Cl)cc(Cl)cc32)C1C(=O)O (stereo not drawn) [Example 73.a] | – | – | – | – | – | + (NAUC “+” refers to an observed NAUC <140% of positive control) |
| CC(C)(C)C(C)(C)CN(C(=O)[C@H]1[C@H]2C[C@](C)(OCc3ccccc3)CN2[C@]2(C(=O)Nc3c(Cl)cc(Cl)cc32)[C@H]1C(=O)O)c1cc(Cl)cc(Cl)c1 [Example 95] | +++ (NAUC “+++” refers to an observed NAUC>170% of positive control) | – | +++ (NAUC “+++” refers to an observed NAUC>170% of positive control) | – | +++ (NAUC “+++” refers to an observed NAUC>170% of positive control) | – |
| CN(C)CCN(C(=O)[C@H]1[C@H]2CC(F)(F)CN2[C@]2(C(=O)Nc3c(Cl)cc(Cl)cc32)[C@H]1C(=O)O)c1cc(Cl)cc(Cl)c1 [Example 160] | + (NAUC “+” refers to an observed NAUC <140% of positive control) | – | + (NAUC “+” refers to an observed NAUC <140% of positive control) | – | – | – |
| O=C(Nc1cc(Cl)cc(Cl)c1)C1C(C(F)(F)c2ccncc2)NC2(C(=O)Nc3c(Cl)cc(Cl)cc32)C1C(=O)O (stereo not drawn) [Example 66.9a, 5,7-dichloro-4′-((3,5-dichlorophenyl)carbamoyl)-5′-(difluoro(pyridin-4-yl)methyl)-2-oxospiro[indoline-3,2′-pyrrolidine]-3′-carboxylic acid] | – | – | – | – | – | + (NAUC “+” refers to an observed NAUC <140% of positive control) |
| CN(O)C(=O)[C@H]1[C@@H](C(=O)N(C)c2cc(Cl)cc(Cl)c2)[C@H]2CC(F)(F)CN2[C@]12C(=O)Nc1c(Cl)cc(Cl)cc12 [Example 260a, (1′R,2′S,3R,7a′R)-5,7-dichloro-N1′-(3,5-dichlorophenyl)-6′,6′-difluoro-N2′-hydroxy-N1′,N2′-dimethyl-2-oxo-1′,2′,5′,6′,7′,7a′-hexahydrospiro[indoline-3,3′-pyrrolizine]-1′,2′-dicarboxamide] | – | + (NAUC “+” refers to an observed NAUC <140% of positive control) | – | + (NAUC “+” refers to an observed NAUC <140% of positive control) | – | – |
| COc1cc(C(F)(F)F)cc(NC(=O)C2C3CC(F)(F)CN3C3(C(=O)Nc4c(Cl)cc(Cl)cc43)C2C(=O)O)n1 (single isomer, unassigned) [Example 80.7a.2, 5,7-dichloro-6′,6′-difluoro-1′-((6-methoxy-4-(trifluoromethyl)pyridin-2-yl)carbamoyl)-2-oxo-1′,2′,5′,6′,7′,7a′-hexahydrospiro[indoline-3,3′-pyrrolizine]-2′-carboxylic acid] | – | + (NAUC “+” refers to an observed NAUC <140% of positive control) | – | +++ (NAUC “+++” refers to an observed NAUC>170% of positive control) | – | +++ (NAUC “+++” refers to an observed NAUC>170% of positive control) |
| CC(C)N(C(=O)[C@H]1[C@H]2CC(F)(F)CN2[C@]2(C(=O)Nc3c(Cl)cc(Cl)cc32)[C@H]1C(=O)O)c1cc(Cl)cc(Cl)c1 [Example 174] | +++ (NAUC “+++” refers to an observed NAUC>170% of positive control) | – | +++ (NAUC “+++” refers to an observed NAUC>170% of positive control) | – | +++ (NAUC “+++” refers to an observed NAUC>170% of positive control) | – |
| COCCN1C(=O)[C@]2(c3cc(Cl)cc(Cl)c31)[C@@H](C(=O)O)[C@@H](C(=O)N(CC1CC1)c1cc(Cl)cc(Cl)c1)[C@H]1CC(F)(F)CN12 [Example 203] | + (NAUC “+” refers to an observed NAUC <140% of positive control) | – | + (NAUC “+” refers to an observed NAUC <140% of positive control) | – | – | – |
| O=C(Nc1ccc2ccccc2n1)[C@H]1[C@H]2CC(F)(F)CN2[C@]2(C(=O)Nc3c(Cl)cc(Cl)cc32)[C@H]1C(=O)O [Example 113] | – | + (NAUC “+” refers to an observed NAUC <140% of positive control) | – | + (NAUC “+” refers to an observed NAUC <140% of positive control) | – | + (NAUC “+” refers to an observed NAUC <140% of positive control) |
| O=C(O)[C@H]1[C@@H](C(=O)N(CC2CCCCC2)c2cc(Cl)cc(Cl)c2)[C@H]2CC(F)(F)CN2[C@]12C(=O)Nc1c(Cl)cc(Cl)cc12 [Example 177] | +++ (NAUC “+++” refers to an observed NAUC>170% of positive control) | – | ++ (NAUC “++” refers to an observed NAUC 170-140% of positive control) | – | ++ (NAUC “++” refers to an observed NAUC 170-140% of positive control) | – |
| O=C(O)[C@H]1[C@@H](C(=O)N(CC2CCC2)c2cc(Cl)cc(Cl)c2)[C@H]2CC(F)(F)CN2[C@]12C(=O)Nc1c(Cl)cc(Cl)cc12 [Example 148] | +++ (NAUC “+++” refers to an observed NAUC>170% of positive control) | – | +++ (NAUC “+++” refers to an observed NAUC>170% of positive control) | – | +++ (NAUC “+++” refers to an observed NAUC>170% of positive control) | – |
